Source: patent publication US9884851B2, “Heterocycle-bisamide inhibitors of scavenger receptor BI” (THE BROAD INSTITUTE, INC., priority 2012, dated 2018)
Several values for one entry are separate records, joined by “and”; a condition that tells them apart may be missing. Identical values can stand only once. Entries after “also recorded” stand apart in the source; their conditions may differ.

Legend:
SR-BI [1] = target: T1, SR-BI (Mus musculus, UniProt Q61009); test: DiI-HDL uptake assay with washout; type: cell-based, murine; design: expressed in transfected cells; host or cells: ldlA[mSR-BI], Chinese hamster ovary (CHO) cells lacking LDL receptor (Krieger Laboratory); conditions: compound pretreatment, wash, DiI-HDL without compound
T1 sequence (Q61009 1-509): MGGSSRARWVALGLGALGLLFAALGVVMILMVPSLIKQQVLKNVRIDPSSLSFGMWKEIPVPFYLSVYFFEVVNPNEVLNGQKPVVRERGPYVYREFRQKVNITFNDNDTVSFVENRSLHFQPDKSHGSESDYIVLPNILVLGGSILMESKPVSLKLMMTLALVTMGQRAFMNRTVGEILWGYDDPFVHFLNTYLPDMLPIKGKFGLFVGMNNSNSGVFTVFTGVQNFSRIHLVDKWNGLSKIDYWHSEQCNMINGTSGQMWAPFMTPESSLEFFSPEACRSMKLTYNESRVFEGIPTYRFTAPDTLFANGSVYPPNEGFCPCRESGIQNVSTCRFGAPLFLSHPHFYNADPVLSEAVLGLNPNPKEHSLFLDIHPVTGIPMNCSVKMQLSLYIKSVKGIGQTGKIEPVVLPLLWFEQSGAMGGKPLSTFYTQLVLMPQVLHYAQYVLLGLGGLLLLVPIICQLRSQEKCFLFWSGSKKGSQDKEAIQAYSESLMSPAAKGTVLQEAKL
Method: DiI-HDL Uptake Assay with Washout (SA 5: AID No. 588831)
This is a modification of the primary assay where cells are pretreated with compound but no compound is present during the DiI-HDL treatment period. ldlA[mSR-BI] cells were plated into 384-well plates at 30 μl per well and incubated overnight. Cells were treated with compound for 3 hours, then media were removed and the cells were washed with PBS before fresh lipoprotein-free media (Ham's F12/0.5% fatty acid-free Bovine Serum Albumin [BSA]/25 mM HEPES pH 7.4) was added with 10 μg protein/ml DiI-HDL. Cells took up the DiI via SR-BI over 3 hours in the absence of compound. After significant uptake of the DiI, the cells became fluorescent. The level of fluorescence correlates with the amount of DiI uptake and can be measured with a standard plate reader. The uptake of lipid (represented by DiI) was inhibited by the compound BLT-1.

SR-BI [2] = target: T1, SR-BI; test: DiI-HDL uptake assay with extended washout; type: cell-based, murine; design: expressed in transfected cells; host or cells: ldlA[mSR-BI], Chinese hamster ovary (CHO) cells lacking LDL receptor (Krieger Laboratory); conditions: 4-hour washout period
Method: DiI-HDL Uptake Assay with Extended Washout (SA 5: AID No. 588831)
This is another modification of the primary assay where cells are pretreated with compound but no compound is present during a 4-hour washout period or the subsequent 3-hour DiI-HDL treatment period. […] Cells were treated with compound for 3 hours, then were washed four times with PBS, once with lipoprotein-free media (Ham's F12/0.5% fatty acid-free Bovine Serum Albumin [BSA]/25 mM HEPES pH 7.4), and then returned to the incubator with lipoprotein-free media for 4 hours. Media were then removed and cells were washed with PBS before fresh lipoprotein-free media (Ham's F12/0.5% fatty acid-free Bovine Serum Albumin [BSA]/25 mM HEPES pH 7.4) was added with 10 μg protein/ml DiI-HDL. Cells took up the DiI via SR-BI over 3 hours in the absence of compound. After significant uptake of the DiI, the cells became fluorescent. The level of fluorescence correlates with the amount of DiI uptake and can be measured with a standard plate reader. The uptake of lipid (represented by DiI) was inhibited by the compound BLT-1 or with an excess of HDL untreated with DiI.

murine SR-BI, isoform 1 = target: T2, murine SR-BI, isoform 1 (Mus musculus, UniProt Q61009); test: DiI-HDL uptake assay (primary assay); type: cell-based; conditions: for IC50: ldlA[mSR-BI] cells, 3 hours with compound
T2 construct: expressed in transfected cells; host or cells: ldlA[mSR-BI], Chinese hamster ovary (CHO) cells lacking LDL receptor (Krieger Laboratory)
T2 sequence (Q61009 1-509): T1 sequence (Q61009 1-509)
Method: The following cell lines were used in this study: • ldlA[mSR-BI] is a Chinese hamster ovary (CHO) cell line that overexpresses murine SR-BI, isoform 1 (NP_058021) and was obtained from the (Krieger Laboratory). This cell line was used for the primary assay and several secondary assays. […] Assays DiI-HDL Uptake Assay (Primary Assay AID Nos. 488896, 493194, 540354 588392, 588553, 588548, 588754, 588828, 588833)
ldlA[mSR-BI] cells were plated into 384-well plates at 30 μl per well and incubated overnight. As a measurable surrogate for cholesterol uptake, human HDL particles were treated with the lipophilic fluorescent dye DiI and exposed to ldlA[mSR-BI] cells in lipoprotein-free media (Ham's F12/0.5% fatty acid-free Bovine Serum Albumin (BSA)/25 mM HEPES pH 7.4 plus 10 μg protein/ml DiI-HDL). Cells took up the DiI via SR-BI over 3 hours in the presence of compound. After significant uptake of the DiI, the cells became fluorescent. The level of fluorescence correlates with the amount of DiI uptake and can be measured with a standard plate reader (here a PerkinElmer EnVision plate reader was used). The uptake of lipid (represented by DiI) was inhibited by the positive control compound BLT-1 or with an excess of HDL untreated with DiI. Primary HTS data were analyzed in Genedata Screener Assay Analyzer, and were normalized against DMSO and the positive control (1 μM BLT-1). For the HTS, the average of two replicates was used to rank order activity and to choose compounds for retests. For dose studies, percent (%) activity was determined for each concentration and the concentration response curves (CRCs) were generated with Genedata Condeseo.
To identify novel inhibitors, SR-BI-mediated lipid uptake was measured in an engineered cell line that minimized potential uptake by other mechanisms, including via the LDL receptor (1). ldlA[mSR-BI] cells overexpress murine isoform 1 and selectively take up HDL lipid at similar levels as “has been reported for cultured mouse adrenal cells, perfused organs, and liver, adrenal gland and ovary in vivo” (1). This primary cell-based assay was used in a pilot screen that identified BLTs 1 through 5. The assay was slightly modified from the original protocol of Nieland et al. to increase throughput and to ease automation procedures.
Briefly, the plate reader was switched to a Perkin-Elmer EnVision, several washing steps were eliminated, and the cell number per well was reduced without impacting the robustness of the assay. The automated assay was first tested with a validation set of 2,240 compounds. These compounds were tested in duplicate with in-plate neutral (DMSO) and positive (1 μM BLT-1) controls. Robustness, reproducibility, and variability parameters were analyzed before initiating the full HTS. The HTS was run over the course of several weeks. Data were normalized relative to controls, and plate patterns were corrected using a multiplicative algorithm in Genedata Screener Assay Analyzer. For each compound, the average of the two replicates was determined and used for subsequent analysis.

Compound	reversibility of inhibition / activity after washout (in words) (SR-BI [1])	IC50 (SR-BI [2]; read-out: DiI-HDL uptake IC50 after 4-hour washout period) [nM]	reduction in signal in primary HTS (murine SR-BI, isoform 1; 1 μM, positive control) [fold]	IC50 (murine SR-BI, isoform 1)	reversibility of inhibition / activity after washout (in words) (SR-BI [1]; listed as compound of Formula (II))	activity after extended washout (in words) (SR-BI [2])	selectivity (murine SR-BI, isoform 1)	higher potency than ITX-5061 (murine SR-BI, isoform 1; AID No. 588828)
CCCCCCC1CCCC1=NNC(N)=S (stereo not shown) [BLT-1, reference compound]	nonreversible covalent modifier of SR-BI	0.6	> 2.2	10.8 nM	–	–	–	–
C[C@H](C(=O)NC1CCCC1)N(C(=O)Cn1nnc(-c2ccc3c(c2)OCO3)n1)C1CCCCC1 [ML279, (R)-2-(2-(5-(Benzo[d][1,3]dioxol-5-yl)-2H-tetrazol-2-yl)-N-cyclohexylacetamido)-N-cyclopentylpropanamide]	reversible binder of SR-BI; also recorded: greatly attenuated; also recorded: reversible inhibitor of HDL uptake; also recorded: showed no inhibition	–	–	16 nM and 16.2 nM	reversible inhibitor	greatly attenuated	greater than 1000	approximately 15 fold
